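Five concentrations, 48 hours, 96-well plates. TGI marks complete inhibition of growth.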
How the values were obtained:
Experiment in all cases: NCI tumour cell line growth inhibition, 48 h
BT-549 breast = system: BT-549 breast
DU-145 prostate = system: DU-145 prostate
HS 578T breast = system: HS 578T breast
MCF7 breast = system: MCF7 breast
MDA-MB-231 breast = system: MDA-MB-231 breast
MDA-MB-435 = system: MDA-MB-435
MDA-N = system: MDA-N
T-47D breast = system: T-47D breast

Measured: TGI

O=C(NCCN(CCNC(=O)c1cccc(=O)n1O)CCNC(=O)c1cccc(=O)n1O)c1cccc(=O)n1O
> 100 µM: BT-549 breast | DU-145 prostate | HS 578T breast | MCF7 breast | MDA-MB-231 breast | MDA-MB-435 | MDA-N | T-47D breast

Source: PubChem BioAssay (NCI)
